Measurements published in ChEMBL document CHEMBL1201862, “PubChem BioAssay data set” (2004).
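The compound was tested at five concentrations on cells cultured in 96-well plates, with a 48-hour exposure period. At the GI50, growth is halved.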 Active and inactive are the calls of the source. Cut-off read from the data, not from the text of the source: active = GI50 up to about 1.1 µM and inactive = higher.

How the values were obtained:
Assay in all cases: inhibition of tumour cell growth, NCI panel, 48 h
K562 = test system: K562
SK-OV-3 = test system: SK-OV-3
SK-MEL-28 = test system: SK-MEL-28
HOP-62 = test system: HOP-62
CCRF-CEM = test system: CCRF-CEM
Hs-578T = test system: Hs-578T
SK-MEL-2 = test system: SK-MEL-2
OVCAR-5 = test system: OVCAR-5
BT-549 = test system: BT-549
A549 = test system: A549
HL-60 = test system: HL-60
SW-620 = test system: SW-620
SNB-75 = test system: SNB-75
KM12 = test system: KM12
NCI/ADR-RES = test system: NCI/ADR-RES
ACHN = test system: ACHN
SNB-19 = test system: SNB-19
NCI-H522 = test system: NCI-H522
MDA-MB-435 = test system: MDA-MB-435

Structure (SMILES)	GI50 (K562)	GI50 (SK-OV-3)	GI50 (SK-MEL-28)	GI50 (HOP-62)	GI50 (CCRF-CEM)	GI50 (Hs-578T)	GI50 (SK-MEL-2)	GI50 (OVCAR-5)	GI50 (BT-549)	GI50 (A549)	GI50 (HL-60)	GI50 (SW-620)	GI50 (SNB-75)	GI50 (KM12)	GI50 (NCI/ADR-RES)	GI50 (ACHN)	GI50 (SNB-19)	GI50 (NCI-H522)	GI50 (MDA-MB-435)
Cc1cc(S(=O)(=O)Nc2nc(N)nc(N(C)C)n2)c(SC(C(=O)O)c2ccccc2)cc1Cl (configuration not stated)	> 10 µM (inactive)	> 10 µM (inactive)	> 10 µM (inactive)	> 10 µM (inactive)	> 10 µM (inactive)	> 10 µM (inactive)	> 10 µM (inactive)	> 10 µM (inactive)	> 10 µM (inactive)	> 10 µM (inactive)	> 10 µM (inactive)	> 10 µM (inactive)	> 10 µM (inactive)	> 10 µM (inactive)	> 10 µM (inactive)	> 10 µM (inactive)	> 10 µM (inactive)	> 10 µM (inactive)	
CCCCI(O)OS(=O)(=O)c1ccc(C)cc1	67.8 µM (inactive)	> 100 µM (inactive)	> 100 µM (inactive)	> 100 µM (inactive)	53.5 µM (inactive)	> 100 µM (inactive)	> 100 µM (inactive)	> 100 µM (inactive)	> 100 µM (inactive)	66.2 µM (inactive)		> 100 µM (inactive)	73.5 µM (inactive)	56.8 µM (inactive)	29.6 µM (inactive)	> 100 µM (inactive)	> 100 µM (inactive)	22.5 µM (inactive)	> 100 µM (inactive)
CCNC(=S)NNC(=O)c1csc(NC(=S)NC2CCCCC2)n1		21.3 µM (inactive)		10.6 µM (inactive)	4.55 µM (inactive)		12.3 µM (inactive)	26.9 µM (inactive)	15.2 µM (inactive)	16.9 µM (inactive)		5.27 µM (inactive)		11.1 µM (inactive)	14.4 µM (inactive)	7 µM (inactive)	37.5 µM (inactive)		4.1 µM (inactive)
CC(CO)CCC(O)C(C)(O)C1CCC2(O)C3=CC(=O)C4CC(O)C(O)CC4(C)C3CCC12C (configuration not stated)	> 100 µM (inactive)	> 100 µM (inactive)	> 100 µM (inactive)	> 100 µM (inactive)	81.3 µM (inactive)		> 100 µM (inactive)	> 100 µM (inactive)	> 100 µM (inactive)	> 100 µM (inactive)	> 100 µM (inactive)	> 100 µM (inactive)	84.3 µM (inactive)	> 100 µM (inactive)	> 100 µM (inactive)	> 100 µM (inactive)	> 100 µM (inactive)	> 100 µM (inactive)	> 100 µM (inactive)
C=C1CC(c2ccc(OCCCN3C(=O)c4ccccc4C3=O)c(OC)c2)OC1=O (configuration not stated)	1.07 µM (active)	15.4 µM (inactive)	2.21 µM (inactive)	15.6 µM (inactive)	1.06 µM (active)	6.17 µM (inactive)	4.7 µM (inactive)	13.7 µM (inactive)		13.6 µM (inactive)	1.25 µM (inactive)	1.56 µM (inactive)	0.382 µM (active)	10.8 µM (inactive)	17.9 µM (inactive)	6.25 µM (inactive)	11.9 µM (inactive)	0.514 µM (active)	2.04 µM (inactive)
CN1C(=O)C(O)CC1c1ccccc1C(F)(F)F (configuration not stated)		> 100 µM (inactive)	> 100 µM (inactive)	> 100 µM (inactive)	> 100 µM (inactive)		> 100 µM (inactive)	> 100 µM (inactive)	> 100 µM (inactive)	> 100 µM (inactive)	> 100 µM (inactive)	> 100 µM (inactive)	> 100 µM (inactive)	> 100 µM (inactive)	> 100 µM (inactive)	> 100 µM (inactive)	> 100 µM (inactive)	> 100 µM (inactive)	> 100 µM (inactive)
CN(C)CS/C(N)=N\C(O)C(Cl)(Cl)Cl (configuration not stated)	> 100 µM (inactive)		> 100 µM (inactive)	> 100 µM (inactive)	51.6 µM (inactive)	> 100 µM (inactive)	> 100 µM (inactive)	> 100 µM (inactive)	> 100 µM (inactive)	> 100 µM (inactive)		> 100 µM (inactive)	> 100 µM (inactive)	> 100 µM (inactive)	> 100 µM (inactive)	> 100 µM (inactive)	> 100 µM (inactive)	> 100 µM (inactive)	> 100 µM (inactive)
CNc1nnc(CNc2ccc(-c3nnc(NC)n3N)cc2)n1N	> 100 µM (inactive)	> 100 µM (inactive)	> 100 µM (inactive)	> 100 µM (inactive)	> 100 µM (inactive)		> 100 µM (inactive)	> 100 µM (inactive)	12.4 µM (inactive)	> 100 µM (inactive)	39.5 µM (inactive)	> 100 µM (inactive)	> 100 µM (inactive)	> 100 µM (inactive)	> 100 µM (inactive)	> 100 µM (inactive)	> 100 µM (inactive)		> 100 µM (inactive)
Oc1c(NCn2nc(CCCCCCCCc3nn(CNc4ccc5ccccc5c4O)c(=S)o3)oc2=S)ccc2ccccc12	> 100 µM (inactive)	> 100 µM (inactive)	49.7 µM (inactive)	94.2 µM (inactive)			42.8 µM (inactive)	43.9 µM (inactive)	> 100 µM (inactive)	44.4 µM (inactive)		35.6 µM (inactive)	> 100 µM (inactive)	28.2 µM (inactive)	44.5 µM (inactive)	> 100 µM (inactive)	> 100 µM (inactive)	49 µM (inactive)	12.5 µM (inactive)
CC(=O)O[C@H]1C[C@](C)(O)[C@@]23CC([C@@H](OC(=O)C(C)(C)O)[C@@H](OC(C)=O)C2(COC(=O)c2ccccc2)[C@H]1OC(C)=O)C(C)(C)O3 (some centres not stated)	50 µM (inactive)	> 100 µM (inactive)	> 100 µM (inactive)	> 100 µM (inactive)	41.1 µM (inactive)	> 100 µM (inactive)	86.5 µM (inactive)	> 100 µM (inactive)	> 100 µM (inactive)	47.8 µM (inactive)		> 100 µM (inactive)		78.5 µM (inactive)	> 100 µM (inactive)	> 100 µM (inactive)	> 100 µM (inactive)	67.1 µM (inactive)	> 100 µM (inactive)
COc1cccc2cc(C(N)=O)c(=N)oc12	> 100 µM (inactive)	49.9 µM (inactive)	46.5 µM (inactive)		40.6 µM (inactive)	31.5 µM (inactive)	22.9 µM (inactive)	51.3 µM (inactive)	> 100 µM (inactive)	50.5 µM (inactive)	58.7 µM (inactive)	99.1 µM (inactive)	63.2 µM (inactive)	42.6 µM (inactive)	57.1 µM (inactive)	40.3 µM (inactive)	82 µM (inactive)		42.3 µM (inactive)
CCOC(=O)C1(C/C=C\CBr)CCCC1=O (configuration not stated)		83.9 µM (inactive)	47.3 µM (inactive)	29.1 µM (inactive)		55.6 µM (inactive)	31.3 µM (inactive)	31.2 µM (inactive)	30.3 µM (inactive)	30.6 µM (inactive)		22.4 µM (inactive)	27 µM (inactive)	32.1 µM (inactive)	25.5 µM (inactive)	20.4 µM (inactive)	38.3 µM (inactive)	21.4 µM (inactive)	22.1 µM (inactive)
C/C(=N\O)c1ccc2ccc3ccccc3c2c1	25.5 µM (inactive)	> 100 µM (inactive)	44.2 µM (inactive)	> 100 µM (inactive)	51.3 µM (inactive)	27.6 µM (inactive)	43 µM (inactive)	52.2 µM (inactive)		31.8 µM (inactive)	22.2 µM (inactive)	30.6 µM (inactive)	25.5 µM (inactive)	21.5 µM (inactive)	31.3 µM (inactive)	32.8 µM (inactive)	62.8 µM (inactive)	29.9 µM (inactive)	22.2 µM (inactive)
O=c1cc(/C=C/c2ccc(O)c(O)c2)cc(/C=C/c2ccc(O)c(O)c2)o1	2.9 µM (inactive)	11.5 µM (inactive)	16.4 µM (inactive)	10.5 µM (inactive)	7.66 µM (inactive)	8.05 µM (inactive)	11.6 µM (inactive)	12.2 µM (inactive)	13.9 µM (inactive)	12.8 µM (inactive)		13.6 µM (inactive)	10.5 µM (inactive)	8.43 µM (inactive)	32.9 µM (inactive)	5.85 µM (inactive)	8.28 µM (inactive)	1.68 µM (inactive)	12.9 µM (inactive)
Clc1ccc(C2Nc3ccccc3C3=NCCN32)cc1 (configuration not stated)	15.7 µM (inactive)	26.1 µM (inactive)	18 µM (inactive)	23.4 µM (inactive)	28.4 µM (inactive)	33.3 µM (inactive)	19.1 µM (inactive)	29.7 µM (inactive)	24.3 µM (inactive)	32.3 µM (inactive)	22.1 µM (inactive)	24.5 µM (inactive)		18.3 µM (inactive)	19.5 µM (inactive)	35.3 µM (inactive)	27.9 µM (inactive)		16.6 µM (inactive)
O/N=N/c1ccc(Sc2ccc(/N=N/O)cn2)nc1	> 100 µM (inactive)	> 100 µM (inactive)	> 100 µM (inactive)	> 100 µM (inactive)	> 100 µM (inactive)	> 100 µM (inactive)		> 100 µM (inactive)	> 100 µM (inactive)	> 100 µM (inactive)	> 100 µM (inactive)	> 100 µM (inactive)	> 100 µM (inactive)	> 100 µM (inactive)	> 100 µM (inactive)	> 100 µM (inactive)	> 100 µM (inactive)	> 100 µM (inactive)	
